Measured values reported in patent US8410170B2, “Use of isothiocyanates compounds in treating prostatic diseases and skin cancer” (Wuxi JC Pharmaceutical Technology Co., Ltd., priority 2005, dated 2013).
pIC50: −log10 of the molar value. “Also recorded” adds a separate entry of the source.

Legend:
GSTP1 = assay: Western blot to detect GSTP1 protein in LNCaP cells; type: cell-based, human; settings: LNCaP cells exposed 24 hrs
Description: Western blot to detect GSTP1 protein (FIG. 1): […] The cells were harvested, washed and total cellular proteins were extracted as described previously (Wang, […], et al. […] Cancer Res 61(20): 7544-51, 2001). Fifty μg cellular extracts were separated on a SDS-PAGE, electro-transferred to nitrocellulose filters, and immunoblotted initially with antibodies against GSTP1. The same membranes were stripped and re-probed with β-actin for loading control. The result was recorded by ECL films.

Sp1 = assay: Western blot to detect Sp1 in LNCaP cells; type: cell-based, human; settings: 24 hrs
Description: (§1) The cells were harvested, washed and total cellular proteins were extracted as described previously (as Example 2). Fifty μg proteins were then subjected to electrophoresis in SDS-PAGE, electro-transferred to nitrocellulose filters, and immunoblotted initially with antibodies against AR, Sp1, and PSA. The same membranes were stripped and re-probed with β-actin for loading control. The result was recorded by ECL films.

PSA = assay: Western blot to detect PSA in LNCaP cells; type: cell-based, human; settings: 24 hrs
Description: as §1

[1] = test system: human prostate cancer cell line LNCaP; assay: MTT and SRB cell growth assay, LNCaP; type: cell-based
Description: MTT and SRB method as described in the reference (Kreis, Budman et al. 1997). Briefly, human prostate cancer cells grown exponentially were aliquoted into 96-well plates at a density of 5000 cells/200 μl per well. Twenty-four hrs after the incubation, the cells were exposed for three or seven days to serial dilutions of indicated isothiocyanate. After the incubation, 100 μl of the medium was removed from each of the wells and 50 μl solution of 3-(4,5-dimethyl-thiazol-2-yl)-2,5-diphenyltetrazolium bromide (MTT) was added, the cells were incubated for an additional 4 hrs and then 200 μl of 0.04 N HCl-isopropanol was added to each well to dissolve the black formazan precipitates. The absorbance was measured at wavelength 540 nm. For SRB method, remove the medium after 72 hrs. The cells on 96-well dishes were fixed with 10% trichloride acetic acid for 1 hr, air-dried for 24 hrs. The cells were then stained with 50 μl of SRB (sulforhodamine B) for […]. After extensive washes with 1% acetic acid for 5 times, air-dried, the purple protein-SRB complex was dissolved in 200 μl 10 mM Tris-HCl buffer (pH 10.0), and the absorbance was measured at the wavelength of 540 and 630 nm. The percent of cell survival (T/C%) were calculated based on the results of test groups to that of the control group. The semi-exponential curves of the percent of cell survival (T/C%) to the drug concentrations (FIG. 8) and IC50 were obtained by using Sigma-plot program.

LNCaP AI = assay: MTT growth inhibition, hormone independent LNCaP AI; type: cell-based; settings: Homo sapiens, LNCaP, 168 h, read-out: IC50, growth inhibition
Source text: The human prostate cancer cell line LNCaP AD was purchased from the American Type Culture Collection. LNCaP AI cell line was derived from LNCaP cells using a method described previously by Gao et al. (Gao, M., Ossowski, L., and Ferrari, A. C. Activation of Rb and decline in androgen receptor protein precede retinoic acid-induced apoptosis in androgen-dependent LNCaP cells and their androgen-independent derivative. J Cell Physiol, 179: 336-346, 1999). The AD and AI cells were maintained in RPMI-1640 with 10% fetal bovine serum (FBS) and charcoal stripped fetal bovine serum, penicillin-streptomycin for incubation at 5% CO2 and 37° C. respectively.
MTT: MTT and SRB method were used to determine the effects of various isothiocyanates on cell growth as described previously (Kreis, Budman et al, 1997). Briefly, human prostate cancer cell line LNCaP grown exponentially were aliquoted into 96-well plates at a density of 2500 cells/200 μl per well. Twenty-four hrs after the incubation, the cells were exposed for seven days to serial dilutions of indicated isothiocyanate or paclitaxel. […] The absorbance was measured at wavelength 540 nm. The percent of cell survival (T/C%) were calculated based on the results of test groups to that of the control group. […]

[2] = Stability testing of isothiocyanate compositions (60° C., HPLC); type: physicochemical; settings: sealed vials, day 10, HPLC
Description: Suitable amount of API (isothiocyanates, as control) and compositions were placed into clean vials, and sealed with rubber stoppers plus aluminum caps. All samples were stored at 60° C., and then assayed by a validated HPLC method at time day 0, day 5, and day 10.

Question: With `S=C=NCCc1ccccc1` [PEITC, phenethyl isothiocyanate] as the compound, how does the “expression of GSTP1 (Western blot)” value (GSTP1) read?
Answer: The value was “significantly restored; also recorded: effectively induce”.

Question: What about the “expression of Sp1 (Western blot)” value (Sp1) of the same compound?
Answer: Its value is “significantly inhibited”.

Question: And the “expression of PSA (Western blot)” value (PSA)?
Answer: The value was “significantly inhibited”.

Question: And the “Percent of Cell Survival (T/C %)” value ([1]; 0.0390 μM, LNCaP)?
Answer: The value was 102.60%.

Question: And the “Percent of Cell Survival (T/C %)” value ([1]; 0.0780 μM, LNCaP)?
Answer: Its value is 102.10%.

Question: What about the “Percent of Cell Survival (T/C %)” value ([1]; 0.1562 μM, LNCaP) of the same compound?
Answer: Its value is 88.10%.

Question: What about the “Percent of Cell Survival (T/C %)” value ([1]; 0.3125 μM, LNCaP) of the same compound?
Answer: Its value is 82.25%.

Question: What about the “Percent of Cell Survival (T/C %)” value ([1]; 0.6250 μM, LNCaP) of the same compound?
Answer: The value was 82.25%.

Question: What about the “Percent of Cell Survival (T/C %)” value ([1]; 1.2500 μM, LNCaP) of the same compound?
Answer: The value was 78.12%.

Question: What about the “Percent of Cell Survival (T/C %)” value ([1]; 2.5000 μM, LNCaP) of the same compound?
Answer: Its value is 30.24%.

Question: What about the “Percent of Cell Survival (T/C %)” value ([1]; 5.0000 μM, LNCaP) of the same compound?
Answer: Its value is 10.06%.

Question: And the “Percent of Cell Survival (T/C %)” value ([1]; 10.0000 μM, LNCaP)?
Answer: The value was 1.52%.

Question: What about the “Percent of Cell Survival (T/C %)” value ([1]; 20.0000 μM, LNCaP) of the same compound?
Answer: The value was 0.56%.

Question: And the pIC50 ([1]; Homo sapiens, LNCaP, MTT and SRB, read-out: IC50, growth inhibition)?
Answer: Its pIC50 is 5.82 to 6.10.

Question: And the “inhibitory effect on growth of human prostate cancer cells stronger than B16 cells” value ([1]; LNCaP versus B16)?
Answer: Its value is 8-10 times.

Question: What about the pIC50 (LNCaP AI) of the same compound?
Answer: The pIC50 was 6.22.

Question: What about the “API % under 60° C. for 10 days” value [2] of the same compound?
Answer: The value was 95.2%.
